For the data set, the system named is male C57B16 mice. The data set can be described thus: Flushing via laser Doppler procedure in mice. The data set is classed as in vivo. Conditions: relative to nicotinic acid; mouse model. On the procedure: To measure flushing, male C57B16 mice (approx. 25 g) are anesthetized using 10 mg/mkg Nembutal sodium. After ten minutes the animal is placed under the laser and the ear is folded back to expose the ventral side. The laser is positioned in the center of the ear and focused to an intensity of 8.4-9.0 V (which is generally approx. 4.5 cm above the ear). Data acquisition is initiated with a 15 by 15 image format, auto interval, 60 images and a 20 sec time delay with a medium resolution. Test compounds are administered following the 10th image via injection into the peritoneal space. Images 1-10 are considered the animal's baseline and data is normalized to an average of the baseline mean intensities.

Structures are written as SMILES. Entries after “also recorded” stand apart in the source; their conditions may differ.

Take `C1Cc2[nH]nc(-c3nnn[nH]3)c2C1` [compound of formula I, 3-(2H-tetrazol-5-yl)-1,4,5,6-tetrahydrocyclopentapyrazole]: the flushing effect result is on record as “reduced flushing effect relative to nicotinic acid; also recorded: reduced flushing effect relative to nicotinic acid, but flushing is not completely eliminated”.

The record behind these values is patent US20070244107A1, “Method of Treating Atherosclerosis, Dyslipidemias and Related Conditions” (priority 2004, published 2007).
